Drawing on PubChem BioAssay (NCI), this text covers GI50 and TGI for 7 compounds.

Among the test systems are CCRF-CEM leukemia; DU-145 prostate; HCC-2998 colon; HCT-15 colon; KM12 colon; MDA-MB-231 breast; MOLT-4 leukemia; NCI-H226 lung; NCI-H460 lung; OVCAR-4 ovarian.
What all share (assay): growth of human tumour cells (NCI), 48 h

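How tested: cells in 96-well plates exposed to compound for 48 hours at five concentrations. GI50 is the concentration that inhibits growth by half. TGI: total growth inhibition.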 A value given as a limit tells only on which side of the number the result lay.

For `CC(=O)O[C@H]1C(=O)[C@@]2(C)[C@H]([C@H](OC(=O)c3ccccc3)[C@]3(O)C[C@H](OC(=O)[C@H](OC(=O)OC[C@H]4COC(C)(C)O4)[C@@H](NC(=O)c4ccccc4)c4ccccc4)C(C)=C1C3(C)C)[C@]1(OC(C)=O)CO[C@@H]1C[C@@H]2O`, the GI50 in the experiment with CCRF-CEM leukemia was 26.5 nM; with DU-145 prostate it was 29 nM; with HCC-2998 colon, 9.83 nM; in the experiment with HCT-15 colon it was 228 nM; with KM12 colon it was 9.43 nM; in the experiment with MDA-MB-231 breast, 73.6 nM. The GI50 in the experiment with MOLT-4 leukemia is 40.8 nM; with NCI-H226 lung, 290 nM; in the experiment with NCI-H460 lung, 6.01 nM; in the experiment on OVCAR-4 ovarian, more than 33300 nM. Moreover, the TGI with CCRF-CEM leukemia was more than 33300 nM; with HCC-2998 colon, more than 33300 nM; in the experiment on HCT-15 colon, more than 33300 nM; with KM12 colon it was more than 33300 nM; in the experiment on MDA-MB-231 breast, more than 7740 nM; with MOLT-4 leukemia it was more than 33300 nM. Moreover, the TGI with NCI-H226 lung, in the experiment with NCI-H460 lung and with OVCAR-4 ovarian was more than 33300 nM in each case.
For the compound `Cn1c(-c2ccccc2)c(/C=C/C2=[N+](C)c3ccccc3C2(C)C)c2ccccc21`, the GI50 in the experiment with CCRF-CEM leukemia was 1180 nM; in the experiment with DU-145 prostate, 1870 nM; with HCC-2998 colon it was 365 nM; in the experiment with HCT-15 colon it was 3920 nM; in the experiment with KM12 colon it was 429 nM; in the experiment with MDA-MB-231 breast it was 2180 nM. The GI50 in the experiment with MOLT-4 leukemia is 1060 nM; in the experiment with NCI-H226 lung it was 2350 nM; in the experiment with NCI-H460 lung, 580 nM; in the experiment on OVCAR-4 ovarian, 1810 nM. For the same compound, the TGI is 54700 nM with CCRF-CEM leukemia; 12700 nM in the experiment on DU-145 prostate; 3420 nM in the experiment with HCC-2998 colon; 22100 nM in the experiment on HCT-15 colon; 1940 nM in the experiment on KM12 colon; 22800 nM in the experiment with MDA-MB-231 breast. In addition, the TGI in the experiment with MOLT-4 leukemia came out at 4060 nM; in the experiment on NCI-H226 lung, 12200 nM; with NCI-H460 lung it was 8240 nM; in the experiment with OVCAR-4 ovarian, 14400 nM.
For the compound `CCCCCCCC(=O)SCC/C=C/[C@@H]1CC(=O)NCc2nc(cs2)C2=N[C@@](C)(CS2)C(=O)N[C@@H](C(C)C)C(=O)N1`, the GI50 in the experiment on CCRF-CEM leukemia is 26.5 nM; in the experiment with DU-145 prostate it was less than 10 nM; in the experiment on HCC-2998 colon it was 22.4 nM; in the experiment with HCT-15 colon, 3420 nM; in the experiment on KM12 colon it was 38.9 nM; in the experiment with MDA-MB-231 breast, 28.6 nM. Moreover, the GI50 with MOLT-4 leukemia was less than 11.2 nM; in the experiment with NCI-H226 lung, 906 nM; in the experiment with NCI-H460 lung it was 33.5 nM; in the experiment on OVCAR-4 ovarian, 21.2 nM. Further, the TGI with CCRF-CEM leukemia was more than 100000 nM; in the experiment with DU-145 prostate, more than 100000 nM; in the experiment on HCC-2998 colon it was 408 nM; with HCT-15 colon it was 97000 nM; in the experiment with KM12 colon, more than 100000 nM; in the experiment with MDA-MB-231 breast, 31500 nM. Moreover, the TGI was more than 100000 nM in the experiment with MOLT-4 leukemia, 22200 nM in the experiment on NCI-H226 lung, more than 100000 nM in the experiment with NCI-H460 lung and more than 100000 nM with OVCAR-4 ovarian.
Take `CC(=O)OC12c3ccccc3-c3ccccc3C1C(C(=O)O)C2C(=O)O` (centres undefined): the TGI with CCRF-CEM leukemia, in the experiment on DU-145 prostate, in the experiment on HCC-2998 colon, in the experiment on HCT-15 colon, in the experiment with KM12 colon and in the experiment with MDA-MB-231 breast was more than 10000 nM each time. The TGI with MOLT-4 leukemia, in the experiment on NCI-H226 lung, in the experiment with NCI-H460 lung and in the experiment on OVCAR-4 ovarian was more than 10000 nM throughout.
For `C=C1C(=O)O[C@H]2[C@H]1CC/C(COC(=O)OC/C1=C/CC[C@@]3(C)O[C@H]3[C@H]3OC(=O)[C@@H](CN(C)C)[C@@H]3CC1)=C\CC[C@@]1(C)O[C@@H]21`, the GI50 in the experiment on CCRF-CEM leukemia is 247 nM; in the experiment with DU-145 prostate, 1650 nM; with HCC-2998 colon it was 2960 nM; with HCT-15 colon, 1040 nM; in the experiment on KM12 colon it was 5490 nM; in the experiment on MDA-MB-231 breast, 1490 nM. The GI50 is 874 nM in the experiment on MOLT-4 leukemia, 2650 nM in the experiment on NCI-H226 lung, 5380 nM in the experiment with NCI-H460 lung and 1420 nM in the experiment with OVCAR-4 ovarian. Moreover, the TGI with CCRF-CEM leukemia came out at 733 nM; in the experiment on DU-145 prostate it was 3320 nM; with HCC-2998 colon, 8200 nM; with HCT-15 colon it was 2530 nM; in the experiment with KM12 colon it was 18700 nM; with MDA-MB-231 breast, 3070 nM. The TGI amounted to 3750 nM in the experiment with MOLT-4 leukemia, 10000 nM with NCI-H226 lung, 19900 nM in the experiment on NCI-H460 lung and 3100 nM in the experiment with OVCAR-4 ovarian.
Turning to `COc1ccc(NC(=O)c2sc3nc(C)c(C(=O)/C=C/c4cccc(OC)c4)cc3c2N)cc1`, the GI50 with CCRF-CEM leukemia is 1210 nM; with DU-145 prostate it was 1640 nM; in the experiment on HCC-2998 colon, 1520 nM; in the experiment on HCT-15 colon, 1010 nM; in the experiment with KM12 colon it was 1450 nM; in the experiment on MDA-MB-231 breast it was 1660 nM. The GI50 was 1500 nM with MOLT-4 leukemia, 1890 nM in the experiment with NCI-H226 lung, 1070 nM with NCI-H460 lung and 4010 nM in the experiment with OVCAR-4 ovarian. Further, the TGI in the experiment with CCRF-CEM leukemia was more than 50000 nM; in the experiment with DU-145 prostate, 5660 nM; in the experiment on HCC-2998 colon it was 5320 nM; in the experiment with HCT-15 colon it was 2420 nM; with KM12 colon, 5060 nM; with MDA-MB-231 breast, more than 50000 nM. For the same compound, the TGI with MOLT-4 leukemia was more than 50000 nM; in the experiment on NCI-H226 lung it was 10300 nM; in the experiment with NCI-H460 lung, 2450 nM; in the experiment on OVCAR-4 ovarian, 17800 nM.
Regarding `Cc1ccc2c(c1)C(=O)c1c-2c(OCCCN(C)C)nc2ccccc12`, the GI50 with CCRF-CEM leukemia was 1620 nM; in the experiment on DU-145 prostate it was 2810 nM; with HCC-2998 colon it was 2180 nM; with HCT-15 colon it was 548 nM; with KM12 colon it was 1220 nM; with MDA-MB-231 breast, 1640 nM. For the same compound, the GI50 in the experiment on MOLT-4 leukemia is 427 nM; in the experiment on NCI-H226 lung it was 2490 nM; in the experiment with NCI-H460 lung it was 976 nM; in the experiment with OVCAR-4 ovarian, 2730 nM. For the same compound, the TGI in the experiment on CCRF-CEM leukemia amounted to 9130 nM; in the experiment with DU-145 prostate it was 13900 nM; in the experiment with HCC-2998 colon, 11800 nM; in the experiment on HCT-15 colon it was 1940 nM; with KM12 colon, 2720 nM; in the experiment on MDA-MB-231 breast, 5450 nM. The TGI in the experiment on MOLT-4 leukemia is 4570 nM; in the experiment with NCI-H226 lung it was 13700 nM; in the experiment on NCI-H460 lung it was 3200 nM; in the experiment with OVCAR-4 ovarian it was 13100 nM.
